Measured values reported in ChEMBL document CHEMBL1201862, “PubChem BioAssay data set” (2004).
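Grown in 96-well plates, cells were treated for 48 hours with each compound at five concentrations. Insufficient inhibition: endpoint recorded as highest concentration tested. GI50 = concentration required for 50% inhibition of growth.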 The source made the active and inactive calls. Rule as the data show it: active = GI50 up to about 1.1 µM and inactive = higher.

What was measured:
Test in all cases: growth of human tumour cells (NCI), 48 h
SK-MEL-28 = system: SK-MEL-28
MCF7 = system: MCF7
NCI-H226 = system: NCI-H226
HOP-92 = system: HOP-92
OVCAR-3 = system: OVCAR-3
Malme-3M = system: Malme-3M
MOLT-4 = system: MOLT-4
COLO 205 = system: COLO 205
HOP-62 = system: HOP-62
OVCAR-4 = system: OVCAR-4
SNB-75 = system: SNB-75
SW-620 = system: SW-620
OVCAR-8 = system: OVCAR-8
A549 = system: A549
NCI/ADR-RES = system: NCI/ADR-RES
T47D = system: T47D
SK-MEL-2 = system: SK-MEL-2
SK-OV-3 = system: SK-OV-3
HL-60 = system: HL-60
SF-295 = system: SF-295

Measured: GI50

Cn1nnc2c(C(N)=O)ncn2c1=O [TEMOZOLOMIDE]
inactive: SK-MEL-28 > 100 µM | MCF7 > 100 µM | NCI-H226 > 100 µM | HOP-92 > 100 µM | OVCAR-3 > 100 µM | Malme-3M > 100 µM | MOLT-4 83.6 µM | COLO 205 > 100 µM | HOP-62 > 100 µM | OVCAR-4 > 100 µM | SNB-75 71 µM | SW-620 > 100 µM | OVCAR-8 > 100 µM | A549 > 100 µM | NCI/ADR-RES > 100 µM | T47D > 100 µM | SK-MEL-2 > 100 µM | SK-OV-3 58.7 µM | HL-60 85.5 µM | SF-295 > 100 µM
